Experimental data published in US11214540B2, “Compositions for treating neurodegenerative diseases” (COGNITION THERAPEUTICS, INC., priority 2017, dated 2022).

What was measured:
[1] = biological target: Sigma-2 receptors on membranes from rat cerebral cortex (Rattus norvegicus (Rat), UniProt Q5U3Y7); experiment: Competitive Radioligand Binding Assay 1, Sigma-2 binding ([3H]DTG displacement with (+)pentazocine mask); details: sigma-2 receptor affinity; read-out: S2 Ki
Experimental: Using the same protocol, some compounds for which membrane trafficking data are given in Table 1 were tested for recognition of sigma-2 receptor. Certain compounds preferentially bind to the sigma-2 receptor.
(§1) For Sigma-1 binding, various concentrations of test compounds from 100 μM to 1 nM were used to displace 8 nM [3H](+)pentazocine from endogenous receptors on Jurkat cell membranes (Ganapathy M E et al. 1991, J Pharmacol. Exp. Ther. 289:251-260). 10 μM Haloperidol was used to define non-specific binding. […] (Bowen W D, et al. 1993, Mol. Neuropharmcol 3:117-126). 10 μM Haloperidol was used to define non-specific binding. Reactions were terminated by rapid filtration through Whatman GF/C filters using a Brandel 12R cell harvester followed by two washes with ice-cold buffer. Radioactivity on the dried filter discs was measured using a liquid scintillation analyzer (Tri-Carb 2900TR; PerkinElmer Life and Analytical Sciences). The displacement curves were plotted and the Ki values of the test compounds for the receptor subtypes were determined using GraphPad Prism (GraphPad Software Inc., San Diego, Calif.). The percentage specific binding was determined by dividing the difference between total bound (disintegrations per minute) and nonspecific bound (disintegrations per minute) by the total bound (disintegrations per minute).
Affinities for Sigma-1 and Sigma-2 receptors are typically obtained from published studies using cerebral tissue homogenates with [3H](+)pentazocine to measure displacement from Sigma-1 receptors and [3H] 1,3-Di-(2-tolyl)guanidine in the presence of 300 nM (+)pentazocine to measure displacement from Sigma-2 receptors.

[2] = test system: Abeta oligomer-induced membrane trafficking deficits in primary hippocampal neurons; experiment: Membrane Trafficking/Exocytosis (MTT) assay, Abeta oligomer effect on neurons; type: cell-based, rat; details: membrane trafficking; read-out: EC50 Abeta;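 also: compound potency for inhibiting the Abeta oligomer effect on exocytosis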
In short: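 Rat E18 hippocampal neurons cultured 3 weeks received compound (100 uM to 0.001 nM), then vehicle or Abeta 1-42 oligomers (3 μM total Abeta), for 1-24 h at 37 °C. MTT was added for 1 h, and formazan vesicle exocytosis was quantified by automated imaging with DAPI toxicity check. Tukey-Kramer comparisons were made with N=4.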

[3] = Mouse liver microsome (MLM) stability; type: in vitro ADME; details: microsomal stability in mouse liver microsomes (MLM)
Experimental: A first pharmacokinetic study was performed in microsomes of mice mouse liver microsomes, MLM).
Microsomal stability experiments and plasma stability experiments were performed to determine metabolic and hepatic stability of candidate compounds.

potassium channel hERG = potassium channel hERG (Homo sapiens (Human), UniProt Q12809); experiment: In vitro testing for hERG inhibition; type: biochemical; details: in vitro toxicity potassium channel hERG
Experimental: In vitro testing for hERG inhibition was performed in a standard assay (See: Haverkamp W, Breithardt G, Carnm A J, Janse M J, Rosen M R, Antzelevitch C, Escande D, Franz M, Malik M, Moss A and Shah R. (2000) Eur Heat J 21 (15); 1216-31).

log P = type: physicochemical
In short: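 Ratio of un-ionized compound concentrations between octanol and water, with aqueous pH set so the un-ionized form predominates. Value given as the log of the octanol/water ratio.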

[4] = biological target: Sigma-1 receptors on Jurkat cell membranes (Homo sapiens (Human), UniProt Q99720); experiment: Competitive Radioligand Binding Assay 1, Sigma-1 binding ([3H](+)pentazocine displacement); details: sigma-1 receptor affinity; read-out: S1 Ki
Experimental: Certain compounds were tested for interaction with several receptors by blocking the binding or action of their agonists or antagonists. Some compounds were tested to see whether they interact directly with known cellular receptor or signaling proteins. Compounds can be tested for the ability to displace binding of known agonists or antagonists of a given human receptor that was overexpressed in cell lines or isolated from tissue. Compounds can also be tested for the ability to block downstream signaling induced by agonists or antagonists of a given human receptor. Compounds can be tested for action at 100 known receptors, and it is desirable that specific activity will occur at only a small subset of CNS-relevant receptors.
as §1, with “minute). […]” for “minute).”

Sigma-1 receptors on Jurkat cell membranes, sequence (Q99720 whole entry): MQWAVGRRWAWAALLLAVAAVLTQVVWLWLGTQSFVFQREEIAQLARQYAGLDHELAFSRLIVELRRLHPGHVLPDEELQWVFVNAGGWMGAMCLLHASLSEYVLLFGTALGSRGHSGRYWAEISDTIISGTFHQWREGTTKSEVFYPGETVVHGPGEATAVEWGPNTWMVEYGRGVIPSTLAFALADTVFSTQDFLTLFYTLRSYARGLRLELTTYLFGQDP
Sigma-2 receptors on membranes from rat cerebral cortex, sequence (Q5U3Y7 whole entry): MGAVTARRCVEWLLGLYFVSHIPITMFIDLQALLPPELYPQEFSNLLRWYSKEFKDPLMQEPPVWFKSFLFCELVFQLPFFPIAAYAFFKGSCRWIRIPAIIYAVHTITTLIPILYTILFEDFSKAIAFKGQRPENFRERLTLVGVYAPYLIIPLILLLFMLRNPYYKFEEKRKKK
potassium channel hERG, sequence (Q12809 whole entry): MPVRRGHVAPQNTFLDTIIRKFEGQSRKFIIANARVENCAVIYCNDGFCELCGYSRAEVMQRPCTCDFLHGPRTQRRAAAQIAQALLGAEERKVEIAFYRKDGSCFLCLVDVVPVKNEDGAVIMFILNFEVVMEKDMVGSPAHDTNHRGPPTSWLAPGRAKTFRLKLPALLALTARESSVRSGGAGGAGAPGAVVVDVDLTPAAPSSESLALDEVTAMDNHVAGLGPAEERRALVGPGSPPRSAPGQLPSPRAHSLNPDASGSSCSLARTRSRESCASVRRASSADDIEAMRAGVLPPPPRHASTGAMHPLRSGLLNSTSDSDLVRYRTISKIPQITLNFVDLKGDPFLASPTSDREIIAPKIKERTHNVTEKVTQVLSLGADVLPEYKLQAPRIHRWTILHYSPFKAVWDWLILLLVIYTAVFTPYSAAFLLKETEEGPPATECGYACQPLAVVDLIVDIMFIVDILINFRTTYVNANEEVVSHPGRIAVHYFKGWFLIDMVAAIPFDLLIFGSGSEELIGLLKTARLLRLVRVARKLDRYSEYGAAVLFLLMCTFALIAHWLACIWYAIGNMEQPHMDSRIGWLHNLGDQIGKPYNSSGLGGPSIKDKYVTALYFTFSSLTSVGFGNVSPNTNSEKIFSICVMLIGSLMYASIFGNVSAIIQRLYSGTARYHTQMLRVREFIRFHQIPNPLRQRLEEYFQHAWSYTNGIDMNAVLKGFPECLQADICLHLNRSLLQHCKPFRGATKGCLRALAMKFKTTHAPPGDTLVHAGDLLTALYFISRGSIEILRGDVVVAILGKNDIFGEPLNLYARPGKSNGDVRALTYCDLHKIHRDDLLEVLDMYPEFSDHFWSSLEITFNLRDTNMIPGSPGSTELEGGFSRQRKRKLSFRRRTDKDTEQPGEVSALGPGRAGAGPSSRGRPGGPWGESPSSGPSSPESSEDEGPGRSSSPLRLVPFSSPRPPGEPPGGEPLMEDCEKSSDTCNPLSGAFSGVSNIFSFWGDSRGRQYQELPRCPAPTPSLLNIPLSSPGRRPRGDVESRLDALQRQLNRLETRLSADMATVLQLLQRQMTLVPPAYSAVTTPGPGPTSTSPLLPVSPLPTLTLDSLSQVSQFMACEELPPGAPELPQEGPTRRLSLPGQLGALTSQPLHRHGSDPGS

| Ki [1] | MLM T1/2 [3] | log P (log P) | Ki [4] | SMILES | EC50 [2] | IC50 (potassium channel hERG) |
| --- | --- | --- | --- | --- | --- | --- |
| 0.0022 µM | 26, min. | 6.31 | – | CC(C)=CC(CC(C)(C)c1ccc(Cl)cc1)N1CCC(C2CCOCC2)CC1 (centres unmarked) [Compound 11] | 3 µM | 1.5 µM |
| 0.0062 µM | 11 min | 5.26 | 0.008 µM | CC(C)=CC(CCc1ccc(F)cc1)N1CCC(C2CCOCC2)CC1 (centres unmarked) [Compound 21] | 20 µM | 0.83 µM |
| 0.0092 µM | 8.2 min | 6.49 | 0.14 µM | COCCCC1CCN(C(C=C(C)C)CC(C)(C)c2ccc(Cl)cc2)CC1 (centres unmarked) [Compound 23] | 0.95 µM | 2.2 µM |
| 0.018 µM | 60 min | 5.68 | 0.0061 µM | CC(C)=CC(CC(C)(C)c1ccc(C(F)(F)F)cc1)N1CCC(CCO)CC1 (centres unmarked) [Compound 28] | 4 µM | 10.2 µM |
| 0.028 µM | 21 min | 6.7 | 0.041 µM | CC(C)=CC(CC(C)(C)c1ccc(Cl)cc1)N1CCC(C)(C)CC1 (centres unmarked) [Compound 31] | 0.7 µM | 10.9 µM |
| 0.039 µM | 60 min | 5.31 | 0.056 µM | CC(C)=CC(CC(C)(C)c1ccc(C(F)(F)F)cc1)N1CCC(CO)CC1 (centres unmarked) [Compound 35] | 20 µM | 13.4 µM |
| 0.04 µM | 25 min | 5.41 | 0.012 µM | CC(C)=CC(CC(C)(C)c1ccc(F)cc1)N1CCC2(CCOCC2)CC1 (centres unmarked) [Compound 36] | 20 µM | 10 µM |
| 0.042 µM | 84 min | 4.85 | 0.19 µM | CC(C)=CC(CC(C)(C)c1ccc(C(F)(F)F)cc1)N1CCC(O)CC1 (centres unmarked) [Compound 38] | 4.5 µM | 16.2 µM |
| 0.067 µM | 35 min | 5.87 | 0.016 µM | CC(C)=CC(CC(C)(C)c1ccc(Cl)cc1)N1CCC2(CCOCC2)CC1 (centres unmarked) [Compound 41] | 1.6 µM | 4 µM |
| 0.074 µM | 29 min | 6.37 | 0.061 µM | CC(C)=CC(CC(C)(C)c1ccc(Cl)cc1)N1CCC(C2CCN(C)CC2)CC1 (centres unmarked) [Compound 43] | 0.3 µM | 4.9 µM |
| 0.11 µM | 28 min | 5.41 | 0.074 µM | CC(C)=CC(CC(C)(C)c1ccc(Cl)cc1)N1CCC(CCO)CC1 (centres unmarked) [Compound 53] | 20 µM | 13.3 µM |
| 0.12 µM | 3.6 min | 5.47 | 0.025 µM | CC(C)=CC(CC(C)(C)c1ccc(Cl)cc1)N1CCC(F)CC1 (centres unmarked) [Compound 55] | 2.5 µM | 7.2 µM |
| 0.16 µM | 39 min | 4.94 | 0.064 µM | CC(C)=CC(CC(C)(C)c1ccc(F)cc1)N1CCC(CCO)CC1 (centres unmarked) [Compound 58] | 0.5 µM | 14 µM |
| 0.23 µM | 53 min | 6.38 | 0.16 µM | CC(C)=CC(CC(C)(C)c1ccc(C(F)(F)F)cc1)N1CCCCC1 (centres unmarked) [Compound 61] | 4.7 µM | 7.3 µM |
| 0.23 µM | 60 min | 4.4 | 0.13 µM | CC(C)=CC(CC(C)(C)c1ccc(F)cc1)N1CCC(C)(O)CC1 (centres unmarked) [Compound 62] | 0.8 µM | 41 µM |
| – | 3.4 min | 4.36 | – | CC(C)=CC(CCc1ccc(C)cc1)N1CCOCC1 (centres unmarked) [Compound 93] | 20 µM | – |
| – | 1.8 min | 5.43 | – | CC(C)=CC(CCc1ccc(C)cc1)N1CCCCC1 (centres unmarked) [Compound 94] | 20 µM | – |
| – | 1.5 min | 4.45 | – | CC(C)=CC(CCc1ccc(Cl)cc1)N1CCOCC1 (centres unmarked) [Compound 95] | 20 µM | – |

| Ki [1] | MLM T1/2 [3] | log P (log P) | Ki [4] | SMILES | EC50 [2] | IC50 (potassium channel hERG) |
| --- | --- | --- | --- | --- | --- | --- |
| – | 6.2 min | 5.52 | – | CC(C)=CC(CCc1ccc(Cl)cc1)N1CCCCC1 (centres unmarked) [Compound 96] | 1.6 µM | – |
| – | 8.7 min | 5.78 | – | CC(C)=CC(CC(C)(C)c1ccc(C)cc1)N1CCC2(CCOCC2)CC1 (centres unmarked) [Compound 97] | 10 µM | – |
| – | 1.7 min | 5.11 | – | COc1ccc(C(C)(C)CC(C=C(C)C)N2CCC3(CCOCC3)CC2)cc1 (centres unmarked) [Compound 98] | 20 µM | – |
| – | 7.4 min | 4.08 | – | COc1ccc(C(C)(C)CC(C=C(C)C)NC2CCOCC2)cc1 (centres unmarked) [Compound 99] | 20 µM | – |
| – | 4.5 min | 4.75 | – | CC(C)=CC(CC(C)(C)c1ccc(C)cc1)NC1CCOCC1 (centres unmarked) [Compound 100] | 13.6 µM | – |
| – | 1.8 min | 5.57 | – | CC(C)=CC(CC(C)(C)c1ccc(C)cc1)NCCC1CCOCC1 (centres unmarked) [Compound 101] | 9.6 µM | – |
| – | 1.5 min | 4.9 | – | COc1ccc(C(C)(C)CC(C=C(C)C)NCCC2CCOCC2)cc1 (centres unmarked) [Compound 102] | 20 µM | – |
| – | 1.1 min | 4.76 | – | COc1ccc(CCC(C=C(C)C)N2CCCCC2)cc1 (centres unmarked) [Compound 103] | 20 µM | – |
| – | 1.3 min | 3.69 | – | COc1ccc(CCC(C=C(C)C)N2CCOCC2)cc1 (centres unmarked) [Compound 104] | 20 µM | – |
| – | 1.3 min | 5.72 | – | CC(C)=CC(CCc1ccc(Cl)cc1)N1CCC(C2CCOCC2)CC1 (centres unmarked) [Compound 105] | 20 µM | – |
| – | 3.9 min | 5.35 | – | COc1ccc(C(C)(C)CC(C=C(C)C)NCCCC2CCOCC2)cc1 (centres unmarked) [Compound 106] | 20 µM | – |
| – | 3.5 min | 5.21 | – | CC(C)=CC(CC(C)(C)c1ccc(C)cc1)N1CCC2(CC1)COC2 (centres unmarked) [Compound 107] | 20 µM | – |
| – | 7.3 min | 4.46 | – | COc1ccc(C(C)(C)CC(C=C(C)C)N(C)C2CCOCC2)cc1 (centres unmarked) [Compound 108] | 20 µM | – |
| – | 5.4 min | 5.13 | – | CC(C)=CC(CC(C)(C)c1ccc(C)cc1)N(C)C1CCOCC1 (centres unmarked) [Compound 109] | 20 µM | – |
| – | 2.6 min | 5.73 | – | COc1ccc(C(C)(C)CC(C=C(C)C)N(C)CCCC2CCOCC2)cc1 (centres unmarked) [Compound 110] | 20 µM | – |
| – | 6.8 min | 5.68 | – | CC(C)=CC(CC(C)(C)c1ccc(Cl)cc1)N(C)CC1CCOCC1 (centres unmarked) [Compound 111] | 20 µM | – |
| – | 8.2 min | 4.92 | – | COc1ccc(C(C)(C)CC(C=C(C)C)N(C)CC2CCOCC2)cc1 (centres unmarked) [Compound 113] | 20 µM | – |
